Assay results reported in patent US12115373B2, “Methods for reducing the risk of strokes by pharmacotherapy to reduce the number and duration of atrial fibrillations” (Xyra, LLC, priority 2022, dated 2024).

Columns and labels:
[1] = tested on: patients with paroxysmal or persistent AFib; assay: Clinical trial evaluation of budiodarone, 6 patients, pacemaker monitoring, two-week dose periods (Example 2); type: in vivo; set-up: Duration of episodes, Mean / Duration of sinus rhythm, Mean: unit not given here; details: for # of AFib episodes, Mean / Duration of episodes, Mean / Duration of sinus rhythm, Mean / Longest AFib Episode - hrs: two-week period, 6 patients
Experimental: This example is a clinical trial evaluation of budiodarone in treating 6 patients with paroxysmal or persistent AFib who previously evidenced episodes of long duration AFib (greater than 24 hours). In this example, the patients' heart rhythm was continuously monitored over a two-week period with a pacemaker, and were treated with different doses of budiodarone. The purpose of this example is to establish whether budiodarone reduces long duration AFib lasting more than 24 hours.

patients = assay: Clinical trial: longest duration episode of AFib at each dose, per subject (Example 7); type: in vivo; details: for longest duration episode of AFib / longest duration episode of AFib, Total: 2 Weeks; for longest duration episode of AFib, Total: Total of subjects
Description: This example is a clinical trial evaluation of 6 patients treated with different doses of budiodarone each for a two-week period to determine the longest duration episode of AFib experienced at each dose. In this example, the patients' heart rhythms were continuously monitored over a twelve-week period with a pacemaker.

CC[C@H](C)OC(=O)Cc1oc2ccccc2c1C(=O)c1cc(I)c(OCCN(CC)CC)c(I)c1 [budiodarone, (S)-sec-butyl2-(3-(4-(2-(diethylamino)ethoxy)-3,5-diiodobenzoyl)benzofuran-2-yl)acetate]
# of AFib episodes, Mean ([1]; 200 mg bid): 31
Duration of episodes, Mean ([1]; 200 mg bid): 1.7
Duration of sinus rhythm, Mean ([1]; 200 mg bid): 131
Longest AFib Episode - hrs ([1]; 200 mg bid): 7 h
# of AFib episodes, Mean ([1]; 400 mg bid): 37
Duration of episodes, Mean ([1]; 400 mg bid): 0.6
Duration of sinus rhythm, Mean ([1]; 400 mg bid): 48
Longest AFib Episode - hrs ([1]; 400 mg bid): 13 h
# of AFib episodes, Mean ([1]; 600 mg bid): 42
Duration of episodes, Mean ([1]; 600 mg bid): 0.1
Duration of sinus rhythm, Mean ([1]; 600 mg bid): 103
Longest AFib Episode - hrs ([1]; 600 mg bid): 7 h
# of AFib episodes, Mean ([1]; 800 mg bid): 24
Duration of episodes, Mean ([1]; 800 mg bid): 0.5
Duration of sinus rhythm, Mean ([1]; 800 mg bid): 42
Longest AFib Episode - hrs ([1]; 800 mg bid): 5 h
episodes of long duration AFib lasting more than 24 hours eliminated as compared to Baseline ([1]; all dose levels (200-800 mg bid)): over 70%
reduction in AFib burden (number of episodes over a 2-week period times the average duration) ([1]; vs baseline, dose levels 200-800 mg bid): more than 64%
dose required to eliminate all episodes of long duration AFib (>5 hrs) (patients; Subject 1): 800 mg bid
longest duration episode of AFib (patients; Subject 1, 200 mg bid): 5 h
longest duration episode of AFib (patients; Subject 1, 400 mg bid): 8 h
longest duration episode of AFib (patients; Subject 1, 600 mg bid): 7 h
longest duration episode of AFib (patients; Subject 1, 800 mg bid): 3 h
longest duration episode of AFib (patients; Subject 2, 200 mg bid): 6 h
longest duration episode of AFib (patients; Subject 2, 400 mg bid): 13 h
longest duration episode of AFib (patients; Subject 2, 600 mg bid): 0 h
longest duration episode of AFib (patients; Subject 2, 800 mg bid): 5 h
longest duration episode of AFib (patients; Subject 3, 200 mg bid): 7 h
longest duration episode of AFib (patients; Subject 4, 200 mg bid): 0 h
longest duration episode of AFib (patients; Subject 4, 400 mg bid): 2 h
longest duration episode of AFib (patients; Subject 4, 600 mg bid): 2 h
longest duration episode of AFib (patients; Subject 4, 800 mg bid): 1 h
longest duration episode of AFib (patients; Subject 5, 200 mg bid): 3 h
longest duration episode of AFib (patients; Subject 5, 400 mg bid): 2 h
longest duration episode of AFib (patients; Subject 5, 600 mg bid): 0.8 h
longest duration episode of AFib (patients; Subject 5, 800 mg bid): 1.6 h
dose required to eliminate all episodes (patients; Subject 6): 600 mg bid
longest duration episode of AFib (patients; Subject 6, 200 mg bid): 6 h
longest duration episode of AFib (patients; Subject 6, 400 mg bid): 10 h
longest duration episode of AFib (patients; Subject 6, 600 mg bid): 0 h
longest duration episode of AFib (patients; Subject 6, 800 mg bid): 3 h
dose sufficient to eliminate all episodes of long duration AFib (>5 hrs) (patients; Subjects 4 and 5): 200 mg twice a day
longest duration episode of AFib, Total (patients; 200 mg bid): 21 h
longest duration episode of AFib, Total (patients; 400 mg bid): 33 h
longest duration episode of AFib, Total (patients; 600 mg bid): 7.8 h
longest duration episode of AFib, Total (patients; 800 mg bid): 13.6 h
